This is an account of results in paper PMC3961306, “Comparison of the Cancer Gene Targeting and Biochemical Selectivities of All Targeted Kinase Inhibitors Approved for Clinical Use” (PLoS ONE, 2014).

The subject of assay [1] is mutant versus wild-type cell lines of the 44 cell line panel. The assay can be described thus: Anova analysis of cell panel IC50s against cancer gene changes; standardized mean difference (targetedness).
Assay [2] relates to forty-four human cancer cell lines. The assay can be described thus: Cell proliferation assay (ATPlite, 72 hours) in the 44 cell line Oncolines panel. Format: cell-based. Particulars: Homo sapiens.

Where two headings read alike, the source gives them in different places.

For `Cc1ccc(NC(=O)c2ccc(CN3CCN(C)CC3)cc2)cc1Nc1nccc(-c2cccnc2)n1` [imatinib], in assay [1] (ABL1 oncogene targeting, Figure 5D), the “targetedness (standardized logIC50 difference)” value was -9.84.
In the case of `Cn1cnc2c(F)c(Nc3ccc(Br)cc3Cl)c(C(=O)NOCCO)cc21` [selumetinib], in assay [1] (CTNNB1 mutant versus wild-type, average), the “Potency shift in cell lines expressing mutant β-catenin (CTNNB1) versus wild-type” value is given as “more than tenfold”.
In the case of `CNC(=O)c1cc(Oc2ccc(NC(=O)Nc3ccc(Cl)c(C(F)(F)F)c3)cc2)ccn1` [sorafenib], the IC50 in assay [2] (4-4 cell, read-out: cell panel IC50, J82) amounted to 26500 nM; in assay [2] (4-4 cell, read-out: cell panel IC50, PA-1) it was 11700 nM; in assay [2] (4-4 cell, read-out: cell panel IC50, SJCRH30), 12100 nM; in assay [2] (4-4 cell, read-out: cell panel IC50, SR), 11800 nM; in assay [2] (769-P, read-out: cell panel IC50, 769-P) it was 12700 nM; in assay [2] (786-0, read-out: cell panel IC50, 786-0), 11700 nM. In addition, the IC50 worked out at 22600 nM in assay [2] (A 172, read-out: cell panel IC50, A-172); 1620 nM in assay [2] (A204, read-out: cell panel IC50, A-204); 18700 nM in assay [2] (A498, read-out: cell panel IC50, A-498); 21200 nM in assay [2] (A549, read-out: cell panel IC50, A-549); 28700 nM in assay [2] (A-375, read-out: cell panel IC50, A375); 7780 nM in assay [2] (A-427, read-out: cell panel IC50, A-427). Besides, the IC50 worked out at 17500 nM in assay [2] (ACHN, read-out: cell panel IC50, ACHN); 9970 nM in assay [2] (AN3-CA, read-out: cell panel IC50, AN3 CA); 10400 nM in assay [2] (AU565, read-out: cell panel IC50, AU-565); 25000 nM in assay [2] (BT-20, read-out: cell panel IC50, BT-20); 18200 nM in assay [2] (BT-549, read-out: cell panel IC50, BT-549); 11100 nM in assay [2] (BXPC-3, read-out: cell panel IC50, BxPC-3). In addition, the IC50 in assay [2] (C-33-A, read-out: cell panel IC50, C-33 A) came out at 15900 nM; in assay [2] (CAL-27, read-out: cell panel IC50, CAL 27) it was 14000 nM; in assay [2] (CCRF-CEM, read-out: cell panel IC50, CCRF-CEM), 13000 nM; in assay [2] (DLD-1, read-out: cell panel IC50, DLD-1), 10500 nM; in assay [2] (FaDu, read-out: cell panel IC50, FaDu), 16200 nM; in assay [2] (HCT-15, read-out: cell panel IC50, HCT-15), 9900 nM. Moreover, the IC50 in assay [2] (HCT-116, read-out: cell panel IC50, HCT-116) was 11900 nM; in assay [2] (Hs-578T, read-out: cell panel IC50, Hs 578T) it was 21600 nM; in assay [2] (Jurkat E6.1, read-out: cell panel IC50, Jurkat E6.1) it was 7940 nM; in assay [2] (K562, read-out: cell panel IC50, K-562) it was 9460 nM; in assay [2] (LS174T, read-out: cell panel IC50, LS 174T), 11700 nM; in assay [2] (LoVo, read-out: cell panel IC50, LoVo) it was 11300 nM. For the same compound, the IC50 in assay [2] (MG-63, read-out: cell panel IC50, MG-63) is 27400 nM; in assay [2] (MOLT-4, read-out: cell panel IC50, MOLT-4) it was 10500 nM; in assay [2] (MeWo, read-out: cell panel IC50, MeWo), 20900 nM; in assay [2] (NCI-H82, read-out: cell panel IC50, NCI-H82) it was 11300 nM; in assay [2] (NCI-H460, read-out: cell panel IC50, NCI-H460) it was 14100 nM; in assay [2] (OVCAR-3, read-out: cell panel IC50, OVCAR-3), more than 31600 nM. Also, the IC50 came to 20400 nM in assay [2] (RPMI-7951, read-out: cell panel IC50, RPMI-7951); 13600 nM in assay [2] (SHP77, read-out: cell panel IC50, SHP-77); 28900 nM in assay [2] (SK-N-AS, read-out: cell panel IC50, SK-N-AS); 8300 nM in assay [2] (SW48, read-out: cell panel IC50, SW48); 5330 nM in assay [2] (SW480, read-out: cell panel IC50, SW480); 5950 nM in assay [2] (SW-620, read-out: cell panel IC50, SW620). In addition, the IC50 in assay [2] (U2OS, read-out: cell panel IC50, U-2 OS) was 15800 nM; in assay [2] (U-87 MG, 72 h, read-out: IC50 in cell proliferation assay (table S5 cellpanel data)), 28300 nM.
As to `CC[C@]1(O)C[C@H]2CN(CCc3c([nH]c4ccccc34)[C@@](C(=O)OC)(c3cc4c(cc3OC)N(C=O)[C@H]3[C@@](O)(C(=O)OC)[C@H](OC(C)=O)[C@]5(CC)C=CCN6CC[C@]43[C@@H]65)C2)C1` [vincristine], the IC50 in assay [2] (769-P, cell line 769-P, read-out: cell panel IC50, 769-P) worked out at 13 nM; in assay [2] (786-0, cell line 786-0, read-out: cell panel IC50, 786-0), 42 nM; in assay [2] (A 172, read-out: cell panel IC50, A-172, cell line A-172) it was 5.3 nM; in assay [2] (A204, cell line A-204, read-out: cell panel IC50, A-204), 13 nM; in assay [2] (A498, read-out: cell panel IC50, A-498, cell line A-498), 20 nM; in assay [2] (A549, read-out: cell panel IC50, A-549, cell line A-549), 24 nM. The IC50 in assay [2] (A-375, cell line A375, read-out: cell panel IC50, A375) was found to be 5.46 nM; in assay [2] (A-427, read-out: cell panel IC50, A-427, cell line A-427) it was 2.27 nM; in assay [2] (ACHN, cell line ACHN, read-out: cell panel IC50, ACHN), 54 nM; in assay [2] (AN3-CA, cell line AN3 CA, read-out: cell panel IC50, AN3 CA) it was 1.29 nM; in assay [2] (AU565, read-out: cell panel IC50, AU-565, cell line AU-565) it was 3.21 nM; in assay [2] (BT-20, cell line BT-20, read-out: cell panel IC50, BT-20), 6 nM. The IC50 in assay [2] (BT-549, read-out: cell panel IC50, BT-549, cell line BT-549) was 2.73 nM; in assay [2] (BXPC-3, cell line BxPC-3, read-out: cell panel IC50, BxPC-3), 9 nM; in assay [2] (C-33-A, cell line C-33 A, read-out: cell panel IC50, C-33 A), 4 nM; in assay [2] (CAL-27, cell line CAL 27, read-out: cell panel IC50, CAL 27), 2.78 nM; in assay [2] (CCRF-CEM, cell line CCRF-CEM, read-out: cell panel IC50, CCRF-CEM) it was 3.26 nM; in assay [2] (DLD-1, cell line DLD-1, read-out: cell panel IC50, DLD-1) it was 61 nM. Further, the IC50 turned out to be 8 nM in assay [2] (FaDu, cell line FaDu, read-out: cell panel IC50, FaDu); 66 nM in assay [2] (HCT-15, cell line HCT-15, read-out: cell panel IC50, HCT-15); 5 nM in assay [2] (HCT-116, read-out: cell panel IC50, HCT-116, cell line HCT-116); 2.48 nM in assay [2] (Hs-578T, cell line Hs 578T, read-out: cell panel IC50, Hs 578T); 2.85 nM in assay [2] (Jurkat E6.1, cell line Jurkat E6.1, read-out: cell panel IC50, Jurkat E6.1); 3.19 nM in assay [2] (K562, read-out: cell panel IC50, K-562, cell line K-562). Besides, the IC50 in assay [2] (LS174T, read-out: cell panel IC50, LS 174T, cell line LS 174T) was 5 nM; in assay [2] (LoVo, cell line LoVo, read-out: cell panel IC50, LoVo) it was 10 nM; in assay [2] (MG-63, cell line MG-63, read-out: cell panel IC50, MG-63), 3.53 nM; in assay [2] (MOLT-4, cell line MOLT-4, read-out: cell panel IC50, MOLT-4), 1.54 nM; in assay [2] (MeWo, cell line MeWo, read-out: cell panel IC50, MeWo), 8.43 nM; in assay [2] (NCI-H82, cell line NCI-H82, read-out: cell panel IC50, NCI-H82), 4.29 nM. Besides, the IC50 in assay [2] (NCI-H460, cell line NCI-H460, read-out: cell panel IC50, NCI-H460) was determined as 35 nM; in assay [2] (OVCAR-3, cell line OVCAR-3, read-out: cell panel IC50, OVCAR-3) it was 3.58 nM; in assay [2] (RPMI-7951, cell line RPMI-7951, read-out: cell panel IC50, RPMI-7951), 2.24 nM; in assay [2] (SHP77, cell line SHP-77, read-out: cell panel IC50, SHP-77), 183 nM; in assay [2] (SK-N-AS, cell line SK-N-AS, read-out: cell panel IC50, SK-N-AS), 2.3 nM; in assay [2] (SW48, cell line SW48, read-out: cell panel IC50, SW48), 4.22 nM. The IC50 was 7 nM in assay [2] (SW480, cell line SW480, read-out: cell panel IC50, SW480); 4.73 nM in assay [2] (SW-620, cell line SW620, read-out: cell panel IC50, SW620); 22 nM in assay [2] (U2OS, cell line U-2 OS, read-out: cell panel IC50, U-2 OS); 4.4 nM in assay [2] (U-87 MG, 72 h, U-87 MG cell line, ATPlite, 72 hours, read-out: IC50 in cell proliferation assay (table S5 cellpanel data)); 28 nM in assay [2] (cell line J82, read-out: cell panel IC50, J82); 1.67 nM in assay [2] (cell line PA-1, read-out: cell panel IC50, PA-1). For the same compound, the IC50 in assay [2] (cell line SJCRH30, read-out: cell panel IC50, SJCRH30) is less than 1 nM; in assay [2] (cell line SR, read-out: cell panel IC50, SR) it was less than 1 nM.
